Experimental data: PMC4745898 (Science signaling, 2015)

Target: TRPA1 (Rattus norvegicus, UniProt Q6RI86)
Assay: TIRF Ca2+ imaging of TRPA1 sparklets in cerebral artery endothelial cells
Format: cell-based

TRPA1, sequence (Q6RI86 whole entry): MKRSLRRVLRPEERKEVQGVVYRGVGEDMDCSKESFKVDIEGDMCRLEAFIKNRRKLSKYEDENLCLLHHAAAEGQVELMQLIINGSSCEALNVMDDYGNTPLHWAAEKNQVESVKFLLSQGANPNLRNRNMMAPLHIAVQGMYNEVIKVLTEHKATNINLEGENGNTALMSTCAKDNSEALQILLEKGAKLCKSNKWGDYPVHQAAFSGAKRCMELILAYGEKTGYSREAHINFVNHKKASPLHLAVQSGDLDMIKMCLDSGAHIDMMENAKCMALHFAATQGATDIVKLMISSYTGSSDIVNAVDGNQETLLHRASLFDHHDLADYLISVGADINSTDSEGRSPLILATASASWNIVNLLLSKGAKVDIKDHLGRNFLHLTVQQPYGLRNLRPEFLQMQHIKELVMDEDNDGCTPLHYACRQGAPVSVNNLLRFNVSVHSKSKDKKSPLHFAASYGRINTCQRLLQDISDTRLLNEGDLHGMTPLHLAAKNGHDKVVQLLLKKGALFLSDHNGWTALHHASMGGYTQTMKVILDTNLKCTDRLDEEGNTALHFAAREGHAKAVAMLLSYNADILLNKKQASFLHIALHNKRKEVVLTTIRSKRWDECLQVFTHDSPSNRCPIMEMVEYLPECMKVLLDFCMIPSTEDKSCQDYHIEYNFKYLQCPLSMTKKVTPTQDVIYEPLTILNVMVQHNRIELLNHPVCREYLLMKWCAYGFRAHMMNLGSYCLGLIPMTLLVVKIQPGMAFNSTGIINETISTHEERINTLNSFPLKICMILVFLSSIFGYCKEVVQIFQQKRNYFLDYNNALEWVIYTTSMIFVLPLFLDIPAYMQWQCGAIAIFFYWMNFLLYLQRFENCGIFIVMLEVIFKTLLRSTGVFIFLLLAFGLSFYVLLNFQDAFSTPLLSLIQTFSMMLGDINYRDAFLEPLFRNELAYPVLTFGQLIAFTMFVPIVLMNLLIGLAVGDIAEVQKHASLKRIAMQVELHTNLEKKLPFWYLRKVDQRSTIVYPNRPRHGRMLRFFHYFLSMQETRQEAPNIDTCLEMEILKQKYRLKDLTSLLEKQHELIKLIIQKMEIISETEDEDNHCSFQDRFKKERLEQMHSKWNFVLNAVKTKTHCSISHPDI

Structure (SMILES): CCCCCC(O)C=CC=O (stereo not shown) [4-HNE]
- EC50: 0.0648 ± 0.0504 µM
